What was measured:
[1] = system: Ghsr-null and wild-type mice; test: Social interaction test after CSDS; format: in vivo, mouse
From the text: FIG. 41. Effects of P7C3 on CSDS-induced depressive-like behavior, as measured by the social interaction test. (a, b) Times spent in the interaction zone with target present for wild-type (a) and Ghsr-null (b) mice. (c, d) Times spent in the corners by wild-type (c) and Ghsr-null (d) mice. Group sizes indicated. *P<0.05, **P<0.01, as compared to respective vehicle-treated control group.
Next, P7C3 and two chemical analogs were employed to investigate whether P7C3-mediated preservation of ventral DG neurogenesis during CSDS might correlate with an antidepressant-like behavioral effect. […] Conversely, the analog P7C3-S184 (Example 178) replaces bromines on the carbazole moiety with chlorines and the aniline moiety with a naphthyl amine, leaving the analog completely devoid of neuroprotective activity.
CSDS was performed similar to methods used previously in the lab (J. C. Chuang et al., Ghrelin mediates stress-induced food-reward behavior in mice. J Clin Invest 121, 2684 (2011)). Test mice were housed individually in large cages paired with a CD1 aggressor mouse, separated by a plastic divider with holes so as to allow sensory contact. For 5 min a day, the plastic divider was removed, exposing test mice to the CD1 mouse. After 5 min of exposure to the CD1 mouse, test mice were again separated and paired with a new CD1 mouse for the remainder of the 24 hours. This process was repeated for 10 days. Following the 5 min sensory contact on the 10th day, mice were separated and singly housed prior to social interaction test. Control mice were housed in equivalent cages with members of the same strain and handled daily. The social interaction test consists of placing mice in an arena with a small cage at one end. The movements of test mice were tracked for 2.5 min in the absence of another mouse, followed by 2.5 min in the presence of a novel CD1 mouse, or the “target”. Ethovision 3.0 software (Noldus, Leesburg, Va.) measured the duration spent in the interaction zone or in the corners. As done previously, data is presented as time spent in the interaction zone when the target is present or time spent in the corners when the target is present (J. C. Chuang et al., Ghrelin mediates stress-induced food-reward behavior in mice. J Clin Invest 121, 2684 (2011)).

[2] = Plasma, brain and spinal cord levels in G93A-SOD1 study (LC/MS/MS); format: in vivo, mouse; settings: 20 mg/kg/day for 21 days; for spinal cord accumulation relative to other compound: six hours after last injection
Description: FIG. 37. Plasma, brain and spinal cord levels of P7C3A20, P7C3 and Dimebon. Five mice for each compound group were treated for 21 days with 20 mg/kg/day of the compound, starting on day 85. Blood, brain and spinal cord were harvested six hours after the last injection and compound levels were measured by LC/MS/MS. Concentrations are presented as mean±SEM.

SNc dopaminergic neurons = test: MPTP-toxicity to SNc dopaminergic neurons, treatment started 24 hours after the last MPTP dose; format: in vivo, mouse (C57Bl/6); settings: for dopaminergic axons in the striatum (TH staining): 20 mg/kg/day
Description: FIG. 29A and FIG. 29B. Neuroprotective efficacy of P7C3 and P7C3A20 from MPTP-toxicity to SNc dopaminergic neurons. FIG. 29A—Test compounds were evaluated by dose response assay for their ability to block MPTP-neurotoxicity in the SNc. […] VEH group contained 30 animals: 15 animals that received the P7C3A20/P7C3 vehicle, and 15 animals that received Dimebon vehicle (saline). […] Representative immunohistochemical pictures of TH-staining in the SNc are shown below the graph. Dosing is expressed as total mg/day, and was administered intraperitoneally in divided doses twice daily. Data are expressed as mean±SEM. […] P7C3A20 does so with greater effect, and Dimebon offers no protection. Striatal sections were obtained from the same mice used in FIG. 2, and compound treatment groups are from mice that received a dose of 20 mg/kg/d.
We compared the protective efficacy of our agents in the Tatton and Kish model of MPTP administration, which induces prolonged apoptotic death of SNc dopaminergic neurons lasting about 3 weeks after a short course of daily MPTP administration. Mice were treated daily for 5 days with 30 mg/kg/day free base MPTP. On the sixth day, 24 hours after receiving the fifth and final dose of MPTP, daily treatment with P7C3, P7C3A20, Dimebon or vehicle was initiated. […] Dose-response studies were conducted in which mice received twice daily doses of each compound (or vehicle) for the ensuing 21 days (FIG. 29A). […] At the end of the 21 day treatment period, mice were sacrificed by transcardial perfusion with 4% paraformaldehyde, and fixed brains were sectioned through the striatum and SNc at 30 μM intervals. Every fourth section (spaced 120 μM apart) was stained with antibodies specific to tyrosine hydroxylase (TH) (Abcam, rabbit anti-TH, 1:2500). The TH enzyme catalyzes the conversion of the amino acid L-tyrosine to L-3,4-dihydroxyphenylalanine (L-DOPA), which serves as the precursor for dopamine. TH staining thus provides a means to immunohistochemically identify dopaminergic neurons. By counting the number of TH+ cells in the SNc, we were able to assess the neuroprotective efficacy of the three chemicals following MPTP exposure. All microscopic analysis was performed by two investigators, blind to treatment group.
15 adult male C57Bl/6 mice were individually housed for one week and then injected daily for 5 days with 30 mg/kg/day (i.p.) free base MPTP (Sigma). On day 6, 24 hours after receiving the fifth and final dose of MPTP, daily treatment with P7C3, P7C3A20, Dimebon or vehicle was initiated. Mice were housed in disposable caging, and protective gear and precautions were implemented for handling MPTP in accordance with UT Southwestern Medical Center policy. Dose response studies were conducted in which mice received twice daily doses of each compound (or vehicle) by intraperitoneal injection for the following 21 days, after which mice were sacrificed by transcardial perfusion with 4% paraformaldehyde. Brains were dissected, fixed overnight in 4% paraformaldehyde, and cryoprotected in sucrose for freezing by standard procedures. Frozen brains were sectioned through the striatum and SNc at 30 uM intervals, and every fourth section (spaced 120 μM apart) was stained with antibodies directed against tyrosine hydroxylase (TH) (Abcam, rabbit anti-TH, 1:2500). Diaminobenzidine was used as a chromagen, and tissue was counter-stained with hematoxylin to aid in visualization of the neuroanatomy. Images were analyzed with a Nikon Eclipse 90i motorized research microscope with Plan Apo lenses coupled with Metamorph Image Acquisition software (Nikon). TH+ neurons were counted with Image J software (NIH) in every section by 2 blinded investigators and results were averaged and multiplied by the sectioning interval to determine the total number of TH+ neurons per SNc.

Row | Structure (SMILES) | depression-like behavior, social interaction test ([1]; CSDS-exposed Ghsr-null mice) | depression-like behavior, social interaction test ([1]; CSDS-exposed wild-type mice) | social interaction test performance ([1]; non-CSDS-exposed control mice) | entry into brain and spinal cord [2] | enhanced survival of TH+ SNc neurons over VEH (SNc dopaminergic neurons; 5 mg/kg/day for 21 days) | dopaminergic axons in the striatum (TH staining) (SNc dopaminergic neurons) | protection relative to vehicle (SNc dopaminergic neurons; 20 mg/kg/day for 21 days) [%] | activity in the MPTP protection assay (SNc dopaminergic neurons; new analogs, 10 mice for each compound) | spinal cord accumulation relative to other compound [2] | onset of efficacy, over VEH (SNc dopaminergic neurons; 1 mg/kg/day for 21 days) [%] | number of dopaminergic neurons in the SNc relative to normal mice not exposed to MPTP (SNc dopaminergic neurons; 20 mg/kg/day for 21 days) | protection from MPTP (SNc dopaminergic neurons; any dose)
1 | OC(CNc1ccccc1)Cn1c2ccc(Br)cc2c2cc(Br)ccc21 (stereo not shown) [Example P7C3] | showed antidepressant efficacy | had no significant effect on depression-like behavior | Neither P7C3 nor the two tested analogs influenced social interaction test performance | able to enter both the brain and spinal cord | about 40% | qualitatively notable protection | ~60 |  |  |  |  | 
2 | OC(CNc1cccc2ccccc12)Cn1c2ccc(Cl)cc2c2cc(Cl)ccc21 (stereo not shown) [Example P7C3-S184] | had no effect on stress-induced depressive-like behavior in either genotype | had no effect on stress-induced depressive-like behavior in either genotype |  |  |  |  |  | inactive in both in vivo assays |  |  |  | 
3 | COc1cccc(NCC(F)Cn2c3ccc(Br)cc3c3cc(Br)ccc32)c1 (stereo not shown) [Example P7C3A20, N-(3-(3,6-dibromo-9H-carbazol-9-yl)-2-fluoropropyl)-3-methoxyaniline] |  |  |  | able to enter both the brain and spinal cord |  | almost completely blocked depletion of dopaminergic axons in the striatum |  |  | less than one-twentieth the concentration of P7C3 | 30 | about 85% | 
4 | Cc1ccc2c(c1)c1c(n2CCc2ccc(C)nc2)CCN(C)C1 [Dimebon, 2,3,4,5-Tetrahydro-2,8-dimethyl-5-(2-(6-methyl-3-pyridyl)ethyl)-1H-pyrido(4,3-b)indole, reference compound] |  |  |  | able to enter both the brain and spinal cord |  | offered no protection of dopaminergic axons in the striatum |  |  | comparable levels of spinal cord accumulation to P7C3A20 |  |  | failed to confer any measurable degree of protection from MPTP at any dose

— patent US10183011B2, “Anti-depression compounds” (Board of Regents of the University of Texas System, priority 2009, dated 2019)
